pEC50: −log10 of the molar value. Read-outs that look alike come from different tables or passages of the source.
Experiments:
[1] = tested on: wild type human immunodeficiency virus (HIV) strain IIIB; test: microbe, parasite or virus in culture; type: cell-based, HIV-1; conditions: read-out: EC50 (IIIB)
Procedure: Compounds of the invention were tested for their potency against wild type human immunodeficiency virus (HIV). Antiviral activity was evaluated using a cellular assay performed according to the following procedure. The human T-cell line MT4 was engineered with Green Fluorescent Protein (GFP) and a HIV-specific promoter, HIV-1 long terminal repeat (LTR). This cell line, designated MT4 LTR-EGFP, can be used for the in vitro evaluation of anti-HIV activity of investigational compounds. In HIV-1 infected cells, the Tat protein is produced, which upregulates the LTR promotor and eventually leads to stimulation of the GFP reporter production, allowing to measure ongoing HIV-infection fluorometrically. Effective concentration values such as 50% effective concentration (EC50) can be determined and are usually expressed in μM. An EC50 value is defined as the concentration of test compound that reduces the fluorescence of HIV-infected cells by 50%. Monitoring of HIV-1 infection was done using a scanning microscope. Image analysis allows very sensitive detection of viral infection. Measurements were done before cell necrosis, which usually takes place about five days after infection, in particular measurements were performed three days after infection. The column IIIB in the table list the EC50 values against the wild type strain IIIB.

[2] = tested on: HCV type 1b replicon in Huh-7 luc/neo (Huh-Luc) cells; test: HCV replicon assay (Huh-Luc, luciferase readout); type: cell-based; conditions: Hepatitis C virus, Huh-7, 72 h, read-out: EC50 (replicon)
Description: The compounds of formula I were examined for activity in the inhibition of HCV RNA replication in a cellular assay aimed at identifying compounds that inhibit a HCV functional cellular replicating cell line, also known as HCV replicons. The cellular assay was based on a bicistronic expression construct, as described by Lohmann et al. (1999), Science vol. 285 pp. 110-113 with modifications described by Krieger et al. (2001), Journal of Virology 75: 4614-4624, in a multi-target screening strategy.
The assay utilized the stably transfected cell line Huh-7 luc/neo (hereafter referred to as Huh-Luc). This cell line harbors an RNA encoding a bicistronic expression construct comprising the wild type NS3-NS5B regions of HCV type 1b translated from an Internal Ribosome Entry Site (IRES) from encephalomyocarditis virus (EMCV), preceded by a reporter portion (FfL-luciferase), and a selectable marker portion (neo^R, neomycine phosphotransferase). The construct is bordered by 5′ and 3′ NTRs (non-translated regions) from HCV type 1b. Continued culture of the replicon cells in the presence of G418 (neo^R) is dependent on the replication of the HCV RNA. The stably transfected replicon cells that express HCV RNA, which replicates autonomously and to high levels, encoding inter alia luciferase, were used for screening the antiviral compounds.
The replicon cells were plated in 384 well plates in the presence of the test and control compounds which were added in various concentrations. Following an incubation of three days, HCV replication was measured by assaying luciferase activity (using standard luciferase assay substrates and reagents and a Perkin Elmer ViewLux™ ultraHTS microplate imager). Replicon cells in the control cultures have high luciferase expression in the absence of any inhibitor. The inhibitory activity of the compound on luciferase activity was monitored on the Huh-Luc cells, enabling a dose-response curve for each test compound. EC50 values were then calculated, which value represents the amount of the compound required to decrease the level of detected luciferase activity by 50%, or more specifically, the ability of the genetically linked HCV replicon RNA to replicate.

[3] = Cellular toxicity in the Huh7-CMV-Luc replicon assay; type: cell-based; conditions: human; Huh7-CMV-Luc cells, three days incubation, Luc activity
Procedure: Cellular toxicity was determined in the Huh7-CMV-Luc replicon assay. Replicon cells (2500 cells/well), stably transformed with a luciferase reporter gene under control of the cytomegalovirus (CMV) constitutive promotor, were cultured in the presence or absence of test compound concentrations. After three days of incubation at 37° C. in a humidified 5% CO2 atmosphere, cell proliferation was quantified by measuring the Luc activity, and expressed as CC50 values (cytotoxicity, 50% inhibitory concentration of cell growth). Tests were performed in 384-well plates.

[4] = Human immunodeficiency virus 1, 72 h, wild type strain IIIB, MT4 LTR-EGFP cells, three days after infection
[5] = Huh-Luc replicon cells, three days incubation, luciferase activity

SMILES	pEC50 [1, 4]	pEC50 [2, 5]	CC50 at 3 days [3] [µM]	pEC50 [2]	pEC50 ([1]; Human immunodeficiency virus 1, IIIB, 72 h)
Nc1ccn([C@@H]2O[C@H](CO)[C@@H](O)C23CC3)c(=O)n1 [Compound 1, 4-Amino-1-(7-hydroxy-6-hydroxymethyl-5-oxa-spiro[2.4]hept-4-yl)-1H-pyrimidin-2-one]	< 4.01	5.08	> 98		
C[C@H](NP(=O)(OC[C@H]1O[C@@H](n2ccc(N)nc2=O)C2(CC2)[C@@H]1O)Oc1ccccc1)C(=O)OCc1ccccc1 (stereo partly drawn) [Compound 2a, (2S)-benzyl 2-((((4R,6R,7S)-4-(4-amino-2-oxopyrimidin-1(2H)-yl)-7-hydroxy-5-oxaspiro[2.4]heptan-6-yl)methoxy)((phenoxy)phosphoryl)amino)propanoate]	< 4.01	4.82	> 98		
C[C@H](NP(=O)(OC[C@H]1O[C@@H](n2ccc(N)nc2=O)C2(CC2)[C@@H]1O)Oc1ccc(Cl)cc1)C(=O)OCc1ccccc1 (stereo partly drawn) [Compound 2b, (2S)-benzyl 2-((((4R,6R,7S)-4-(4-amino-2-oxopyrimidin-1(2H)-yl)-7-hydroxy-5-oxaspiro[2.4]heptan-6-yl)methoxy)(4-chlorophenoxy)phosphorylamino)propanoate]	< 4.01	4.58	> 98		
CCOC(=O)[C@H](Cc1ccccc1)NP(=O)(OC[C@H]1O[C@@H](n2ccc(N)nc2=O)C2(CC2)[C@@H]1O)Oc1ccccc1 (stereo partly drawn) [Compound 2c, (2S)-ethyl 2-((((4R,6R,7S)-4-(4-amino-2-oxopyrimidin-1(2H)-yl)-7-hydroxy-5-oxaspiro[2.4]heptan-6-yl)methoxy)(phenoxy)phosphorylamino)-3-phenylpropanoate]	< 4.01		> 98	≤ 4.01	
COC(=O)[C@H](C)NP(=O)(OC[C@H]1O[C@@H](n2ccc(N)nc2=O)C2(CC2)[C@@H]1O)Oc1ccccc1 (stereo partly drawn) [Compound 2d, (2S)-methyl 2-((((4R,6R,7S)-4-(4-amino-2-oxopyrimidin-1(2H)-yl)-7-hydroxy-5-oxaspiro[2.4]heptan-6-yl)methoxy)(phenoxy)phosphorylamino)propanoate]	< 4.01	4.20	> 98		
CC(C)C(=O)OC[C@H]1O[C@@H](n2ccc(N)nc2=O)C2(CC2)[C@@H]1OC(=O)C(C)C [Compound 3, (4R,6R,7S)-4-(4-amino-2-oxopyrimidin-1(2H)-yl)-6-(isobutyryl-oxymethyl)-5-oxaspiro[2.4]heptan-7-yl isobutyrate]	< 4.01	4.57	> 98		
CC(C)C(=O)OC[C@H]1O[C@@H](n2ccc(N)nc2=O)C2(CC2)[C@@H]1O [Compound 4, ((4R,6R,7S)-4-(4-amino-2-oxopyrimidin-1(2H)-yl)-7-hydroxy-5-oxaspiro[2.4]heptan-6-yl)methyl isobutyrate]		5.04	> 98		< 4.01
CC(C)C(=O)O[C@@H]1[C@@H](CO)O[C@@H](n2ccc(N)nc2=O)C12CC2 [Compound 5, (4R,6R,7S)-4-(4-amino-2-oxopyrimidin-1(2H)-yl)-6-(hydroxymethyl)-5-oxaspiro[2.4]heptan-7-yl isobutyrate]	< 4.01	4.37	> 98		

Source: US8431588B2, “Cyclopropyl polymerase inhibitors” (Janssen Products, LP, priority 2008, dated 2013)
